Data reported in paper PMC8869358, “High-Throughput Chemical Screening and Structure-Based Models to Predict hERG Inhibition” (Biology, 2022).
Structures can show the parent of a compound that is named as a salt.

target: hERG (Homo sapiens, UniProt Q12809); experiment: cell-based; conditions: (-LOG10(IC50), µM)
Sequence (Q12809 whole entry): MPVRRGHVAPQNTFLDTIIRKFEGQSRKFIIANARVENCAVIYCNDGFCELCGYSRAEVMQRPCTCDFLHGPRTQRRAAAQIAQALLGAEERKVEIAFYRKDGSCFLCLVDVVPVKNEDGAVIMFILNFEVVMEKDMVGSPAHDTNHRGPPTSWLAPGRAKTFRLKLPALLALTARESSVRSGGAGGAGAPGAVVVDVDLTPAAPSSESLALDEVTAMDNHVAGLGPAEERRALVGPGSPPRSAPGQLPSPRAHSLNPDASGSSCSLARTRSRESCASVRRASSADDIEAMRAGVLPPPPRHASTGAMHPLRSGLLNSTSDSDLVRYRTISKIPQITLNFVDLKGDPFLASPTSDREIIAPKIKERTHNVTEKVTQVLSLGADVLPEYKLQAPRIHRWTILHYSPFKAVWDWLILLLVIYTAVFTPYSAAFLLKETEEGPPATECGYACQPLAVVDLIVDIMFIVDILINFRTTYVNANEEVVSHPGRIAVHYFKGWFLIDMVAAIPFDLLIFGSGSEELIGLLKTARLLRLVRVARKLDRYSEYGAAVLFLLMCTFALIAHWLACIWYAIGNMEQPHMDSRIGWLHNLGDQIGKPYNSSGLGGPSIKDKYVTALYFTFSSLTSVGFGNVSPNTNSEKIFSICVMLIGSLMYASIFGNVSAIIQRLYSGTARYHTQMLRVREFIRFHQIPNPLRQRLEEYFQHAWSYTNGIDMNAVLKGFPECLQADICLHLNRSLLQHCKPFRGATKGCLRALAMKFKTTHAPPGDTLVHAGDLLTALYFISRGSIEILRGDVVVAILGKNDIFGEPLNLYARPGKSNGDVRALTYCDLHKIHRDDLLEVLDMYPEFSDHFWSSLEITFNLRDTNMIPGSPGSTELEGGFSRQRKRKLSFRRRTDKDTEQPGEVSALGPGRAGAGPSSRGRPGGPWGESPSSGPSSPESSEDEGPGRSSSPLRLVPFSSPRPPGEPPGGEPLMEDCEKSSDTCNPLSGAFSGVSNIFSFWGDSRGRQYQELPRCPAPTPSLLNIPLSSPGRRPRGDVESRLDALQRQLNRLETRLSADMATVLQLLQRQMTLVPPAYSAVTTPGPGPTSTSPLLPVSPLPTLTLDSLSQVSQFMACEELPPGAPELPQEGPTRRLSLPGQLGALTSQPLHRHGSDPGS

| Compound | IC50 [µM] |
| --- | --- |
| CCCCCCCCCCCC[N+](C)(C)C [Dodecyltrimethylammonium chloride] | 18 |
| CCCCCCCCCCCC[N+](C)(C)CCOc1ccccc1 [Domiphen bromide] | 1.34 |
| Cc1ccc(-n2nc(C(C)(C)C)cc2NC(=O)Nc2ccc(OCCN3CCOCC3)c3ccccc23)cc1 [Doramapimod] | 20.1 |
| Cc1ccc(CCn2c3c(c4cc(Cl)ccc42)CN(C)CC3)cn1 [Dorastine] | 15.7 |
| CCN(CC)CCOC(=O)C(c1ccccc1)C1CCCCC1 (centres unmarked) [Drofenine hydrochloride] | 7.86 |
| CCCCc1oc2ccc(NS(C)(=O)=O)cc2c1C(=O)c1ccc(OCCCN(CCCC)CCCC)cc1 [Dronedarone] | 0.849 |
| CCCCOc1ccc(C(=O)CCN2CCCCC2)cc1 [Dyclonine hydrochloride] | 20.1 |
| CCOP(=S)(Oc1ccc([N+](=O)[O-])cc1)c1ccccc1 (centres unmarked) [EPN] | 0.776 |
| CN1CCc2cc(Cl)c(O)cc2[C@H]2c3ccccc3CC[C@@H]21 [Ecopipam] | 10.3 |
| CN1CCN(c2ccccc2/C=C2\SCCN(c3ccc(Cl)c(Cl)c3)C2=O)CC1 [Elzasonan] | 1.61 |
| CCOCCn1c(N2CCCN(C)CC2)nc2ccccc21 [Emedastine difumarate] | 6.24 |
| O=S1OC[C@@H]2[C@H](CO1)[C@]1(Cl)C(Cl)=C(Cl)[C@@]2(Cl)C1(Cl)Cl (some centres unmarked) [Endosulfan I] | 43.6 |
| O=S1(=O)OC[C@@H]2[C@H](CO1)[C@]1(Cl)C(Cl)=C(Cl)[C@@]2(Cl)C1(Cl)Cl [Endosulfan sulfate] | 16.1 |
| Cc1ccc(C=C2C(=O)C3(C)CCC2C3(C)C)cc1 (centres unmarked) [Enzacamene] | 30.7 |
| CCN1CCCC1CNC(=O)C(O)(c1ccccc1)c1ccccc1 (centres unmarked) [Epicainide] | 19.7 |
| CCOC(CN1CCN(CC(C)C(=O)c2ccccc2)CC1)c1ccccc1 (centres unmarked) [Eprazinone dihydrochloride] | 9.28 |
| CN1C[C@H](C(=O)N[C@]2(C)O[C@@]3(O)[C@@H]4CCCN4C(=O)[C@H](Cc4ccccc4)N3C2=O)C=C2c3cccc4[nH]cc(c34)C[C@H]21 [Ergotamine D-tartrate] | 11.9 |
| C[C@]12CC[C@@H]3c4ccc(O)cc4CC[C@H]3[C@@H]1CC[C@@H]2OC(=O)CCC1CCCC1 [Estradiol cypionate] | 43.6 |
| CC(=O)O[C@@H]1CC2C3CCc4cc(OC(=O)c5ccccc5)ccc4C3CCC2(C)[C@H]1OC(C)=O (some centres unmarked) [Estriol benzoate diacetate] | 5.35 |
| CCN(CC)CCOc1ccccc1C(=O)CCc1ccccc1 [Etafenone] | 3.25 |
| C=C(C)CN(CC)c1c([N+](=O)[O-])cc(C(F)(F)F)cc1[N+](=O)[O-] [Ethalfluralin] | 36 |
| CCOC(=O)C1=NOC(c2ccccc2)(c2ccccc2)C1 [Ethyl 5,5-diphenyl-2-isoxazoline-3-carboxylate] | 36.7 |

| Compound | IC50 [µM] |
| --- | --- |
| CCc1cc(Cl)c(OC)c(C(=O)NC[C@@H]2CCCN2CC)c1O [Eticlopride hydrochloride] | 7.56 |
| CCC(CN)=C(c1ccccc1)c1ccccc1 [Etifelmine hydrochloride] | 20.5 |
| O=C(OCCOCCO)c1ccccc1Nc1cccc(C(F)(F)F)c1 [Etofenamate] | 13.4 |
| CCOc1cc(C(C)(C)C)ccc1C1COC(c2c(F)cccc2F)=N1 (centres unmarked) [Etoxazole] | 13.8 |
| Cc1[nH]cnc1C[C@H]1CCc2c(C)c3ccccc3n2C1=O [Fabesetron hydrochloride] | 7.01 |
| CC1(c2ccc(Oc3ccccc3)cc2)OC(=O)N(Nc2ccccc2)C1=O (centres unmarked) [Famoxadone] | 22.9 |
| CC(C)=CCCC(C)=CCCC(C)=CCO [Farnesol] | 47.1 |
| OC(c1ccc(Cl)cc1)(c1cncnc1)c1ccccc1Cl (centres unmarked) [Fenarimol] | 47.9 |
| N#CC(CCc1ccc(Cl)cc1)(Cn1cncn1)c1ccccc1 (centres unmarked) [Fenbuconazole] | 18.1 |
| CCOC(=O)c1nc(C(Cl)(Cl)Cl)n(-c2ccc(Cl)cc2Cl)n1 [Fenchlorazole-ethyl] | 49 |
| CC(NCCC(c1ccccc1)c1ccccc1)c1ccccc1 (centres unmarked) [Fendiline hydrochloride] | 1.69 |
| O=C(CN1CCN(Cc2ccc3c(c2)OCO3)CC1)N1c2ccccc2Sc2ccccc21 [Fenoverine] | 3.51 |
| CCOC(=O)[C@@H](C)Oc1ccc(Oc2nc3ccc(Cl)cc3o2)cc1 [Fenoxaprop-P-ethyl] | 26 |
| CCOC(=O)C(C)Oc1ccc(Oc2nc3ccc(Cl)cc3o2)cc1 (centres unmarked) [Fenoxaprop-ethyl] | 30.9 |
| CCOC(=O)NCCOc1ccc(Oc2ccccc2)cc1 [Fenoxycarb] | 45.3 |
| Clc1ccc(C(Cn2ccnc2)OCc2ccc(Sc3ccccc3)cc2)c(Cl)c1 (centres unmarked) [Fenticonazole] | 12.5 |
| O=C(COc1ccc(Cl)cc1)N1CCN(Cc2ccc3c(c2)OCO3)CC1 [Fipexide hydrochloride] | 16.1 |
| CCCCOC(=O)[C@@H](C)Oc1ccc(Oc2ccc(C(F)(F)F)cn2)cc1 [Fluazifop-P-butyl] | 22 |
| CCCCOC(=O)C(C)Oc1ccc(Oc2ccc(C(F)(F)F)cn2)cc1 (centres unmarked) [Fluazifop-butyl] | 23.2 |
| O=C(NC(=O)c1c(F)cccc1F)Nc1ccc(Oc2ccc(C(F)(F)F)cc2Cl)cc1F [Flufenoxuron] | 37.4 |
| CCOC(=O)COc1cc(-n2ncc(C(F)(F)F)c(C)c2=O)c(F)cc1Cl [Flufenpyr-ethyl] | 30.9 |
| CCCCCOC(=O)COc1cc(N2C(=O)C3=C(CCCC3)C2=O)c(F)cc1Cl [Flumiclorac-pentyl] | 16.4 |

| Compound | IC50 [µM] |
| --- | --- |
| O=C1OC2(c3ccc(O)cc3Oc3cc(O)ccc32)c2ccccc21 [Fluorescein] | 21.9 |
| O=[N+]([O-])c1ccc(Oc2ccc(C(F)(F)F)cc2[N+](=O)[O-])cc1 [Fluorodifen] | 7.76 |
| CCOC(=O)COC(=O)c1cc(Oc2ccc(C(F)(F)F)cc2Cl)ccc1[N+](=O)[O-] [Fluoroglycofen-ethyl] | 13.8 |
| OCCN1CCN(CCCN2c3ccccc3Sc3ccc(C(F)(F)F)cc32)CC1 [Fluphenazine] | 2.79 |
| CCOC(=O)Nc1ccc(NCc2ccc(F)cc2)nc1N [Flupirtine maleate] | 19 |
| CCN(CC)CCN1C(=O)CN=C(c2ccccc2F)c2cc(Cl)ccc21 [Flurazepam] | 3.79 |
| CCCCCCC(C)OC(=O)COc1nc(F)c(Cl)c(N)c1Cl (centres unmarked) [Fluroxypyr-meptyl] | 38.9 |
| C[Si](Cn1cncn1)(c1ccc(F)cc1)c1ccc(F)cc1 [Flusilazole] | 40.2 |
| COC(=O)CSc1cc(N=c2sc(=O)n3n2CCCC3)c(F)cc1Cl [Fluthiacet-methyl] | 38.9 |
| CC(C)Oc1cccc(NC(=O)c2ccccc2C(F)(F)F)c1 [Flutolanil] | 50.9 |
| O=C1c2ccccc2C(=O)N1SC(Cl)(Cl)Cl [Folpet] | 27.5 |
| c1ccc(OCc2ccc(CCCN3CCOCC3)cc2)cc1 [Fomocaine] | 10.7 |
| CN1CCN(CCC(=O)N2c3ccccc3Sc3ccc(C(F)(F)F)cc32)CC1 [Ftormetazine] | 4.96 |
| COc1ccccc1N1CCN(CCCCNC(=O)c2ccc(-c3ccc(C(C)=O)cc3)cc2)CC1 [GR 103691] | 3.01 |
| CCN(C(=O)c1cc(C)cc(OC[C@H](C)Nc2ccncc2)c1)C(C)C [GW473178E methyl benzene sulphonic acid] | 15.9 |
| COc1ccc(CCN(C)CCCC(C#N)(c2cc(OC)c(OC)c(OC)c2)C(C)C)cc1OC (centres unmarked) [Gallopamil hydrochloride] | 7.28 |
| CN(C)c1ccc(C(=C2C=CC(=[N+](C)C)C=C2)c2ccc(N(C)C)cc2)cc1 [Gentian Violet] | 2.79 |
| CCN(CC)C(=O)c1cc(S(=O)(=O)Cc2ccccc2)c(N2CCC(c3ccccc3)CC2)cc1N(CC)CCN(C)C [HMR1171 trifluoroacetate (1:1)] | 2.72 |
| Cc1c(Cl)c(=O)oc2cc(OP(=O)(OCCCl)OCCCl)ccc12 [Haloxon] | 22.1 |
| COC(=O)C(C)Oc1ccc(Oc2ncc(C(F)(F)F)cc2Cl)cc1 (centres unmarked) [Haloxyfop-methyl] | 35.1 |
| ClC1=C(Cl)[C@]2(Cl)[C@@H]3[C@@H](Cl)[C@H]4O[C@H]4[C@@H]3C1(Cl)C2(Cl)Cl [Heptachlor epoxide B] | 38.9 |
| ClC1=C(Cl)C2(Cl)C3C(Cl)C=CC3C1(Cl)C2(Cl)Cl (centres unmarked) [Heptachlor] | 31 |

| Compound | IC50 [µM] |
| --- | --- |
| CCCCCCCCCCCCCCCC[N+](C)(C)C [Hexadecyl trimethyl ammonium chloride] | 18.1 |
| CCCCCCCCCCCCCCCC[N+](C)(C)C [Hexadecyltrimethylammonium bromide] | 20.1 |
| CCCCC(CC)CN1CN(CC(CC)CCCC)CC(C)(N)C1 (centres unmarked) [Hexetidine] | 3.01 |
| CCCCCCOC(=O)c1ccccc1O [Hexyl salicylate] | 18.8 |
| CN1CCCN(C(c2ccccc2)c2ccc(Cl)cc2)CC1 (centres unmarked) [Homochlorcyclizine] | 1.83 |
| CCN(CC)CCNc1ccc(CO)c2sc3ccccc3c(=O)c12 [Hycanthone] | 10.7 |
| COc1ccc2c(c1OC)C(=O)O[C@@H]2[C@H]1c2cc3c(cc2CCN1C)OCO3 [Hydrastine] | 20.8 |
| CC(C)Cc1ccc(C(C)C(=O)OCc2ccccn2)cc1 (centres unmarked) [Ibuprofen piconol] | 16.3 |
| CC(C(O)c1ccc(O)cc1)N1CCC(Cc2ccccc2)CC1 (centres unmarked) [Ifenprodil] | 7 |
| COc1cc(C(C)=O)ccc1OCCCN1CCC(c2noc3cc(F)ccc23)CC1 [Iloperidone] | 1.4 |
| C=CCOC(Cn1ccnc1)c1ccc(Cl)cc1Cl (centres unmarked) [Imazalil sulfate] | 21.3 |
| C=CCOC(Cn1ccnc1)c1ccc(Cl)cc1Cl (centres unmarked) [Imazalil] | 29.8 |
| Cc1c(C)n(Cc2ccccc2)c2ccc(C(=O)OCCN(C)C)cc12 [Indocate] | 14.2 |
| O=C(NC1CCN(CCc2c[nH]c3ccccc23)CC1)c1ccccc1 [Indoramin hydrochloride] | 4.42 |
| COP(=S)(OC)Oc1cc(Cl)c(I)cc1Cl [Iodenphos] | 45.3 |
| CC(C)C1CCC(Cc2ccc(Cl)cc2)C1(O)Cn1cncn1 (centres unmarked) [Ipconazole] | 34.3 |
| O=C1c2ccccc2S(=O)(=O)N1CCCCN1CCN(c2ncccn2)CC1 [Ipsapirone] | 16.9 |
| CC(C)CCOC(=O)C=Cc1ccccc1 [Isoamyl cinnamate] | 39.1 |
| CC(C)COC(=O)C=Cc1ccccc1 [Isobutyl 3-phenylacrylate] | 50.9 |
| CC(C)COC(=O)COc1cc(Cl)c(Cl)cc1Cl [Isobutyl (2,4,5-trichlorophenoxy)acetate] | 41.1 |
